Patent publication US10597388B2, “Pyridazinone herbicides” (FMC CORPORATION, priority 2014, dated 2020)

Columns and labels:
Format in all cases: in vivo
[1] = tested on: galium (catchweed bedstraw, Galium aparine); assay: Test A greenhouse herbicide test, postemergence
In short: (§1)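 Plants grown in loam soil/sand blend pots were treated postemergence at 2 to 10 cm height, one- to two-leaf stage, with formulated test chemicals. After approximately 10 d in a greenhouse, injury was rated visually against untreated controls on a 0 to 100 scale (0 no effect, 100 complete control).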

[2] = tested on: blackgrass (Alopecurus myosuroides); assay: Test A greenhouse herbicide test, postemergence
In short: as §1

[3] = tested on: johnsongrass (Sorghum halepense); assay: Test C greenhouse herbicide test, pre- and postemergence
In short: (§2)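 Each species was treated both before emergence, in a loam–sand soil mix, and after emergence, as 1- to 4-leaf seedlings in peat-based potting medium. Plants stayed in the greenhouse 13 to 15 d, then were scored from 0 (no effect) to 100 (complete control) relative to controls.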

[4] = tested on: foxtail, giant (giant foxtail, Setaria faberii); assay: as above
In short: as §2

[5] = tested on: ryegrass, Italian (Italian ryegrass, Lolium multiflorum); assay: as above
In short: as §2

[6] = tested on: ragweed (common ragweed, Ambrosia elatior); assay: as above
In short: as §2

[7] = tested on: oilseed rape (Brassica napus); assay: as above
In short: as §2

[8] = tested on: crabgrass, large (large crabgrass, Digitaria sanguinalis); assay: as above
In short: as §2

[9] = tested on: wheat (winter wheat, Triticum aestivum); assay: as above
In short: as §2

[10] = tested on: barnyardgrass (Echinochloa crus-galli); assay: as above
In short: as §2

[11] = tested on: morningglory (Ipomoea coccinea); assay: as above
In short: as §2

[12] = tested on: lambsquarters (Chenopodium album); assay: as above
In short: as §2

[13] = tested on: galium (catchweed bedstraw, Galium aparine); assay: as above
In short: as §2

[14] = 125 g ai/ha, visual rating after approx. 10 d, 0 to 100 scale (0 no effect, 100 complete control)
[15] = 500 g ai/ha, 0 to 100 scale, 0 is no effect, 100 is complete control
[16] = Postemergence, 31 g ai/ha, 0 to 100 scale (0 no effect, 100 complete control)
[17] = Postemergence, 125 g ai/ha, scale 0 to 100, 0 is no effect, 100 is complete control
[18] = Postemergence, 250 g ai/ha, scale 0 to 100, 0 no effect, 100 complete control, 13 to 15 d
[19] = Preemergence, 31 g ai/ha, scale 0 to 100, 0 is no effect, 100 is complete control
[20] = Preemergence, 62 g ai/ha, scale 0 to 100, 0 is no effect, 100 is complete control
[21] = Preemergence, 125 g ai/ha, scale 0 to 100, 0 is no effect, 100 is complete control
[22] = Preemergence, 250 g ai/ha, scale 0 to 100, 0 no effect, 100 complete control
[23] = postemergence, 62 g ai/ha, scale 0 to 100, 0 no effect, 100 complete control

## Cc1nn(C)c(=O)c(-c2c(C)sc3ccc(Br)cc23)c1O [Compound 22]
[1]; [14]
  Plant response rating, Galium: 90
[1]; [15]
  Galium plant response rating: 100
[2]; [14]
  Plant response rating, Blackgrass: 50
[2]; [15]
  Blackgrass plant response rating: 70
[3]; [16]
  Johnsongrass plant response rating: 5
[3]; [17]
  Plant response rating, Johnsongrass: 5
[3]; [18]
  Plant response rating, Johnsongrass: 5
[3]; [19]
  Plant response rating, Johnsongrass: 0
[3]; [20]
  Plant response rating, Johnsongrass: 0
[3]; [21]
  Plant response rating, Johnsongrass: 0
[3]; [22]
  Johnsongrass plant response rating: 0
[3]; [23]
  Johnsongrass plant response rating: 5
[4]; [16]
  Foxtail, Giant plant response rating: 10
[4]; [17]
  Plant response rating, Foxtail, Giant: 40
[4]; [18]
  Plant response rating, Foxtail, Giant: 35
[4]; [19]
  Plant response rating, Foxtail, Giant: 5
[4]; [20]
  Plant response rating, Foxtail, Giant: 15
[4]; [21]
  Plant response rating, Foxtail, Giant: 55
[4]; [22]
  Foxtail, Giant plant response rating: 85
[4]; [23]
  Foxtail, Giant plant response rating: 15
[5]; [16]
  Ryegrass, Italian plant response rating: 60
[5]; [17]
  Plant response rating, Ryegrass, Italian: 90
[5]; [18]
  Plant response rating, Ryegrass, Italian: 90
[5]; [19]
  Plant response rating, Ryegrass, Italian: 90
[5]; [20]
  Plant response rating, Ryegrass, Italian: 90
[5]; [21]
  Plant response rating, Ryegrass, Italian: 95
[5]; [22]
  Ryegrass, Italian plant response rating: 95
[5]; [23]
  Ryegrass, Italian plant response rating: 70
[6]; [16]
  Ragweed plant response rating: 70
[6]; [17]
  Plant response rating, Ragweed: 90
[6]; [18]
  Plant response rating, Ragweed: 100
[6]; [19]
  Plant response rating, Ragweed: 30
[6]; [20]
  Plant response rating, Ragweed: 75
[6]; [21]
  Plant response rating, Ragweed: 90
[6]; [22]
  Ragweed plant response rating: 100
[6]; [23]
  Ragweed plant response rating: 75
[7]; [16]
  Oilseed Rape plant response rating: 5
[7]; [17]
  Plant response rating, Oilseed Rape: 90
[7]; [18]
  Plant response rating, Oilseed Rape: 75
[7]; [19]
  Plant response rating, Oilseed Rape: 0
[7]; [20]
  Plant response rating, Oilseed Rape: 5
[7]; [21]
  Plant response rating, Oilseed Rape: 5
[7]; [22]
  Oilseed Rape plant response rating: 80
[7]; [23]
  Oilseed Rape plant response rating: 15
[8]; [16]
  Crabgrass, Large plant response rating: 0
[8]; [17]
  Plant response rating, Crabgrass, Large: 5
[8]; [18]
  Plant response rating, Crabgrass, Large: 5
[8]; [19]
  Plant response rating, Crabgrass, Large: 0
[8]; [20]
  Plant response rating, Crabgrass, Large: 0
[8]; [21]
  Plant response rating, Crabgrass, Large: 0
[8]; [22]
  Crabgrass, Large plant response rating: 35
[8]; [23]
  Crabgrass, Large plant response rating: 5
[9]; [16]
  Wheat plant response rating: 0
[9]; [17]
  Plant response rating, Wheat: 5
[9]; [18]
  Plant response rating, Wheat: 0
[9]; [20]
  Plant response rating, Wheat: 0
[9]; [21]
  Plant response rating, Wheat: 0
[9]; [22]
  Wheat plant response rating: 0
[9]; [23]
  Wheat plant response rating: 0
[10]; [16]
  Barnyardgrass plant response rating: 5
[10]; [17]
  Plant response rating, Barnyardgrass: 10
[10]; [18]
  Plant response rating, Barnyardgrass: 15
[10]; [19]
  Plant response rating, Barnyardgrass: 5
[10]; [20]
  Plant response rating, Barnyardgrass: 5
[10]; [21]
  Plant response rating, Barnyardgrass: 5
[10]; [22]
  Barnyardgrass plant response rating: 60
[10]; [23]
  Barnyardgrass plant response rating: 5
[11]; [16]
  Morningglory plant response rating: 100
[11]; [17]
  Plant response rating, Morningglory: 100
[11]; [18]
  Plant response rating, Morningglory: 100
[11]; [19]
  Plant response rating, Morningglory: 30
[11]; [20]
  Plant response rating, Morningglory: 85
[11]; [21]
  Plant response rating, Morningglory: 100
[11]; [22]
  Morningglory plant response rating: 100
[11]; [23]
  Morningglory plant response rating: 100
[12]; [16]
  Lambsquarters plant response rating: 70
[12]; [17]
  Plant response rating, Lambsquarters: 90
[12]; [18]
  Plant response rating, Lambsquarters: 90
[12]; [19]
  Plant response rating, Lambsquarters: 25
[12]; [20]
  Plant response rating, Lambsquarters: 45
[12]; [21]
  Plant response rating, Lambsquarters: 90
[12]; [22]
  Lambsquarters plant response rating: 90
[12]; [23]
  Lambsquarters plant response rating: 85
[13]; [16]
  Galium plant response rating: 90
[13]; [17]
  Plant response rating, Galium: 95
[13]; [18]
  Plant response rating, Galium: 95
[13]; [19]
  Plant response rating, Galium: 90
[13]; [20]
  Plant response rating, Galium: 90
[13]; [21]
  Plant response rating, Galium: 95
[13]; [22]
  Galium plant response rating: 95
[13]; [23]
  Galium plant response rating: 90
